Laboratory results reported in ChEMBL document CHEMBL5634069, “Exploring N-myristoyltransferase as a promising drug target against parasitic neglected tropical diseases” (Eur J Med Chem, 2023).

Columns and labels:
[1] = target: T1, Glycylpeptide N-tetradecanoyltransferase (Plasmodium vivax (strain Salvador I), UniProt A5K1A2); test: Inhibition of recombinant Plasmodium vivax NMT
T1 sequence (A5K1A2 whole entry): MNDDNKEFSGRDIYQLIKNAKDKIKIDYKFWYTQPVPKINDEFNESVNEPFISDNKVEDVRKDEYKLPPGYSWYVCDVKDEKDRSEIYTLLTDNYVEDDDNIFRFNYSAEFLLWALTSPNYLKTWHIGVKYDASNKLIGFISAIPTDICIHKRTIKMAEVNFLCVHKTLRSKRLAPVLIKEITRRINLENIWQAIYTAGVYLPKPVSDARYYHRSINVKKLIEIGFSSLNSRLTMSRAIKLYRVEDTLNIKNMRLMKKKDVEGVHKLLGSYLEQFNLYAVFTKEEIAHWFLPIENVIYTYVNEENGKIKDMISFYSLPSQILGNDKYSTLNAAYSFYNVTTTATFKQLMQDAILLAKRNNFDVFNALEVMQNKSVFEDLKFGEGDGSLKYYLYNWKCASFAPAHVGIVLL

[2] = target: T2, Glycylpeptide N-tetradecanoyltransferase (Plasmodium falciparum, UniProt Q9U419); test: Inhibition of recombinant Plasmodium falciparum NMT
T2 sequence (Q9U419 whole entry): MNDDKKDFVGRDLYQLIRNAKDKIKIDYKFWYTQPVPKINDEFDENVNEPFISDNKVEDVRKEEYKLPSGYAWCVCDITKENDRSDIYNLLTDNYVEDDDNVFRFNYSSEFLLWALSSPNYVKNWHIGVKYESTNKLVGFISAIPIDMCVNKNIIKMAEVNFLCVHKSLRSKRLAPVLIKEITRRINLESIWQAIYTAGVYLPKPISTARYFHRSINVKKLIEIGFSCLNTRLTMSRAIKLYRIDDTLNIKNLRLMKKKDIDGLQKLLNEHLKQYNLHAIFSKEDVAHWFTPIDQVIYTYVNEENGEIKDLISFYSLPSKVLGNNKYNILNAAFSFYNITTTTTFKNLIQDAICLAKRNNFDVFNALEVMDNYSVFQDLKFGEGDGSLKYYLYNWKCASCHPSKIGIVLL

[3] = target: T3, Glycylpeptide N-tetradecanoyltransferase 1 (Homo sapiens, UniProt P30419); test: Inhibition of recombinant human NMT
T3 sequence (P30419 whole entry): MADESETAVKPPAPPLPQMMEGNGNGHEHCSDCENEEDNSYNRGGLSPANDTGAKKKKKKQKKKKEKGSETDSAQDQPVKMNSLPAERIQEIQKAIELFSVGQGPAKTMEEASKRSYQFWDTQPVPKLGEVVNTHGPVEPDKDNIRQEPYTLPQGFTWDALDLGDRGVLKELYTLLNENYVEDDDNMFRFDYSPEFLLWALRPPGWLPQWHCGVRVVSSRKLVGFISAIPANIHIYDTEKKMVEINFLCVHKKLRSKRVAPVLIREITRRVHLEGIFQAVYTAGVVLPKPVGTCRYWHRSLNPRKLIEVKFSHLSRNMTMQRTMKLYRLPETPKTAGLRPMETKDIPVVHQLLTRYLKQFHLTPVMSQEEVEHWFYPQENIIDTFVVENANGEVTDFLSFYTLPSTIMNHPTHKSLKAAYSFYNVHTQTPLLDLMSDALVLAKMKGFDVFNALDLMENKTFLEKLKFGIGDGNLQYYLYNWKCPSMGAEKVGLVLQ

[4] = Inhibition of full length Brugia malayi NMT expressed in Escherichia coli incubated for 10 mins by liquid scintillation analysis
[5] = Inhibition of full length Caenorhabditis elegans NMT expressed in Escherichia coli incubated for 10 mins by liquid scintillation analysis
[6] = target: T2, Glycylpeptide N-tetradecanoyltransferase; test: Binding affinity to Plasmodium falciparum NMT assessed as inhibition constant using GSNKSKPKDASQRRR-NH2 as peptide substrate
[7] = target: T1, Glycylpeptide N-tetradecanoyltransferase; test: Binding affinity to Plasmodium vivax NMT assessed as inhibition constant using YnMyr-CoA as substrate

NCCCCCCCCCC(=O)N[C@@H](CO)C(=O)N[C@@H](CCCCN)C(=O)NCCC1CCCCC1
IC50 [1]: 680 nM | IC50 [2]: 24300 nM | IC50 [3]: 60 nM

Cc1nn(C)c(CC(C)C)c1NS(=O)(=O)c1c(Cl)cc(-c2cccc(C(C)(C)N)c2)cc1Cl
IC50 [4]: 2000 nM | IC50 [5]: 10 nM

Cc1nn(C)c(C)c1Cc1nnc(-c2sc3ccccc3c2NC2CCNCC2)o1
Ki [6]: 8 nM | Ki [7]: 2.7 nM
